We go through eight compounds from ChEMBL document CHEMBL1201862, “PubChem BioAssay data set” (2004).

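Step 1: Grow cells in 96-well plates. Step 2: Expose to compound for 48 hours at 5 concentrations. Step 3: Interpolate endpoints linearly; if unreached, use highest concentration. Abbreviation: GI50, concentration required for 50% inhibition of growth.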 Activity calls are given as the source filed them. Cut-off read from the data, not from the text of the source: active = GI50 up to about 1.1 µM and inactive = higher.

Some test systems named below: A498; EKVX; HCT-116; HCT-15; Hs-578T; K562; KM12; LOX IMVI; M14; NCI-H226; NCI-H23; NCI-H460; NCI/ADR-RES; RPMI-8226; RXF 393; SK-MEL-5; SW-620; UACC-257.
Common to all, as to test: NCI anticancer screen, dose series, 48 h

Turning to `CC(=O)Oc1cc(Cl)c(C)c2c1[C@H]1CC[C@]3(C)[C@@H](OC(C)=O)CC[C@H]3[C@@H]1CC2`, the GI50 in the assay on A498 is > 100 µM (inactive); with EKVX, > 100 µM (inactive); in the assay with HCT-116 it was 54.6 µM (inactive); in the assay with HCT-15, 50.4 µM; with Hs-578T it was > 100 µM (inactive); in the assay with K562, 78.5 µM (inactive). For the same compound, the GI50 with KM12, in the assay on LOX IMVI, in the assay on M14, in the assay with NCI-H226, in the assay on NCI-H23 and in the assay on NCI-H460 was > 100 µM (inactive) throughout. Moreover, the GI50 with NCI/ADR-RES is > 100 µM (inactive); in the assay with RPMI-8226, 29.5 µM (inactive); in the assay with RXF 393 it was 74.8 µM (inactive); in the assay on SK-MEL-5 it was > 100 µM (inactive); in the assay on SW-620, > 100 µM (inactive); with UACC-257 it was > 100 µM (inactive).

As to `CC(=O)N1CC(C)(C)c2c(C)c(O)c(C)c(C)c21`, the GI50 is > 100 µM (inactive) with A498; > 100 µM (inactive) in the assay on EKVX; > 100 µM (inactive) with HCT-116; over 100 µM in the assay with HCT-15; > 100 µM (inactive) in the assay on Hs-578T; > 100 µM (inactive) with K562. The GI50 with KM12, in the assay with LOX IMVI, in the assay on M14, in the assay with NCI-H226, in the assay on NCI-H23 and in the assay with NCI-H460 was > 100 µM (inactive) in each case. The GI50 with NCI/ADR-RES, with RPMI-8226, in the assay with RXF 393, with SK-MEL-5, with SW-620 and in the assay with UACC-257 was > 100 µM (inactive) in each case.

On to `Nc1nc(N)c2c(n1)NC(c1ccccc1)CC(/C=C/c1ccc(Cl)cc1)=N2` (centres undefined), for which the GI50 is 15.4 µM (inactive) with A498; 4.32 µM (inactive) in the assay with EKVX; 1.99 µM (inactive) in the assay with HCT-116; 5.97 µM with HCT-15; 2.95 µM (inactive) in the assay on Hs-578T; 2.65 µM (inactive) with K562. The GI50 with KM12 is 3.52 µM (inactive); in the assay with LOX IMVI, 3.49 µM (inactive); with M14 it was 11.6 µM (inactive); with NCI-H226, 6.64 µM (inactive); in the assay with NCI-H23, 3.69 µM (inactive); with NCI-H460, 4.41 µM (inactive). Moreover, the GI50 in the assay with NCI/ADR-RES is 3.15 µM (inactive); with RPMI-8226, 3.12 µM (inactive); in the assay on RXF 393, 3.62 µM (inactive); with SK-MEL-5, 9.4 µM (inactive); in the assay on SW-620, 10.4 µM (inactive); with UACC-257, 2.25 µM (inactive).

Regarding `CC1=CC=CC(C)(C)CC1(O[Si](C)(C)C)C(F)(F)F` (centres undefined), the GI50 is > 100 µM (inactive) with A498; 82.6 µM (inactive) with EKVX; > 100 µM (inactive) with HCT-116; over 100 µM in the assay with HCT-15; > 100 µM (inactive) with Hs-578T; 76.4 µM (inactive) with K562. The GI50 with KM12, with LOX IMVI, with M14, in the assay with NCI-H226, in the assay with NCI-H23 and with NCI-H460 was > 100 µM (inactive) in each case. The GI50 in the assay on NCI/ADR-RES, with RPMI-8226, with RXF 393, in the assay with SK-MEL-5, with SW-620 and with UACC-257 was > 100 µM (inactive) in each case.

For the compound `N=c1oc2cc(O)ccc2cc1C(=O)Nc1ccccn1`, the GI50 in the assay on A498 was 24.7 µM (inactive); in the assay with EKVX it was 40.2 µM (inactive); in the assay with HCT-116, 56.1 µM (inactive); with HCT-15, 51.5 µM; with Hs-578T it was > 100 µM (inactive); in the assay on K562, 26.5 µM (inactive). Moreover, the GI50 in the assay on KM12 was 55 µM (inactive); in the assay on LOX IMVI, 34.4 µM (inactive); in the assay on M14, 59.7 µM (inactive); in the assay with NCI-H226, 90.6 µM (inactive); in the assay with NCI-H23, 80.9 µM (inactive); in the assay with NCI-H460 it was 62.8 µM (inactive). The GI50 is 48.8 µM (inactive) in the assay on NCI/ADR-RES; 33.7 µM (inactive) in the assay on RPMI-8226; 26.6 µM (inactive) in the assay with RXF 393; 42.3 µM (inactive) with SK-MEL-5; 77.1 µM (inactive) with SW-620; > 100 µM (inactive) in the assay on UACC-257.

On to `Cc1c(C)c2c(c(N)c1C#N)C(=O)N(Cc1ccc(S(N)(=O)=O)cc1)C2=O`, for which the GI50 in the assay on A498 is 27.9 µM (inactive); with EKVX it was > 45 µM (inactive); in the assay with HCT-116 it was 32.9 µM (inactive); in the assay with HCT-15 it was over 72.9 µM; in the assay on Hs-578T, > 46.3 µM (inactive); in the assay with K562 it was > 100 µM (inactive). In addition, the GI50 with KM12 is > 100 µM (inactive); with LOX IMVI it was 64.6 µM (inactive); in the assay with M14 it was 25.9 µM (inactive); in the assay on NCI-H226 it was > 30.5 µM (inactive); in the assay with NCI-H23 it was 18.9 µM (inactive); with NCI-H460, > 100 µM (inactive). The GI50 in the assay on NCI/ADR-RES was > 57.9 µM (inactive); with RPMI-8226, > 100 µM (inactive); in the assay with RXF 393 it was 7.46 µM (inactive); in the assay with SK-MEL-5 it was > 100 µM (inactive); with SW-620 it was > 100 µM (inactive); in the assay on UACC-257, > 100 µM (inactive).

Consider `O=[N+]([O-])/C=C1\COCc2cc3c(cc21)OCO3`, for which the GI50 in the assay with A498 is 18.8 µM (inactive); in the assay with EKVX, 28.1 µM (inactive); in the assay on HCT-116 it was 21.2 µM (inactive); in the assay with HCT-15, 19.1 µM; in the assay with Hs-578T, 26.9 µM (inactive); in the assay with K562, 27.2 µM (inactive). The GI50 in the assay with KM12 was 15.1 µM (inactive); with LOX IMVI, 27.2 µM (inactive); with M14, 13.4 µM (inactive); in the assay on NCI-H226 it was 34 µM (inactive); with NCI-H23 it was 12.1 µM (inactive); in the assay on NCI-H460 it was 30.9 µM (inactive). Besides, the GI50 with NCI/ADR-RES was 18 µM (inactive); with RPMI-8226, 21.7 µM (inactive); with RXF 393 it was 17.9 µM (inactive); in the assay with SK-MEL-5, 19.6 µM (inactive); in the assay on SW-620, 22.1 µM (inactive); in the assay with UACC-257 it was 19.7 µM (inactive).

Consider `CC(C)(C)c1ccc(CN2CCN(C(c3ccccc3)c3ccc(Cl)cc3)CC2)cc1` (centres undefined), for which the GI50 in the assay on A498 was > 100 µM (inactive); in the assay on EKVX it was 32.1 µM (inactive); with HCT-116, 25.7 µM (inactive); in the assay on HCT-15, 29.9 µM; in the assay with Hs-578T it was > 100 µM (inactive); in the assay with K562, 36.6 µM (inactive). For the same compound, the GI50 in the assay on KM12 was 78 µM (inactive); in the assay on LOX IMVI it was 34.4 µM (inactive); in the assay on M14, 33.4 µM (inactive); in the assay with NCI-H226, 22.1 µM (inactive); in the assay with NCI-H23, 83.6 µM (inactive); with NCI-H460, 95.1 µM (inactive). For the same compound, the GI50 was > 100 µM (inactive) in the assay with NCI/ADR-RES; 33.3 µM (inactive) in the assay on RPMI-8226; 24.4 µM (inactive) in the assay with RXF 393; 27 µM (inactive) in the assay on SK-MEL-5; > 100 µM (inactive) in the assay on SW-620; 35.9 µM (inactive) with UACC-257.
